Results from US12605362B2, “Eletriptan hydrobromide for treatment of spinal cord injury and improvement of locomotor function” (TECHNOPHAGE, INVESTIGAÇÃO E DESENVOLVIMENTO EM …, priority 2020, dated 2026).
Structures can show the parent of a compound that is named as a salt.

Assays:
Assay type in all cases: in vivo
[1] = test system: transected zebrafish larvae; experiment: larval zebrafish phenotypic-based screen for SCI (transected spinal cord, DanioVision swimming activity)
Source text: Tg(mnx1:GFP^m12), abbreviated as hb9:GFP were maintained and bred in constant conditions, by following standard guidelines for fish care and maintenance protocols^27. Zebrafish larvae were used in the phenotypic-based screen for SCI.
A larval zebrafish phenotypic-based screen was used to screen a pool of compounds from a small molecule library (PHARMAKON 1600-MicroSource Discovery Systems, Inc., USA) as previously described by Diana et al. 201928. Briefly, zebrafish larvae were allowed to develop in EM with 1 μM methylene blue until 5 days-post-fertilization (dpf). At 5dpf, zebrafish larvae spinal cords were transected at the level of the anal pore (Diana et al. 2019). At 1 dpi, larvae were randomly distributed into 6-well plates containing EM+10 mM HEPES and exposed during 24 hours to the chemical compounds added to the medium. At 2 dpi, behavioural assessment was performed using DanioVision™ (Noldus Information Technology, the Netherlands) an automated tracking system for zebrafish larvae. Larvae were allowed to freely swim in a 96-well plate (1 larva/well) with EM+10 mM HEPES and their swimming activity was tracked for […], under 10 minutes light-dark cycles (i.e. 3 light cycles and 3 dark cycles). The acquired track data was analysed using the Ethovision X.T. 10 software (Noldus, Wageningen, Netherlands) and only swimming activity obtained in the 3 dark periods were analysed^29.
To accelerate the discover of potential new therapeutics for spinal cord injury (SCI) we used a phenotypic assay that enabled the screening of a pool of chemical compounds from an FDA approved small molecules library. In this phenotypic-based screen, we blindly administered the chemical compounds (25 μM) at 1 day-post-injury (dpi) and we performed the behavioural assessment 24 hours later (i.e. at 2 dpi) as previously described by Chapela D. et al. 2019. The small molecules were first blindly selected, if there was a statistically significant improvement of total distance moved and/or turn angle parameters, which were chosen as indicators of locomotor function. […]

[2] = test system: mice with T9 contusion type of injury; experiment: fibrotic scar quantification (PDGFRβ / GFAP immunohistochemistry); conditions: 42 dpi, vs Vehicle
Method: (§1) A moderate-severe contusion-type of injury was performed on adult C57BL/6 female mice (10-12 weeks) with an Infinite Horizon Impactor (PSI)^30. All surgeries were performed under aseptic conditions. Briefly, under deep anesthesia with Ketamine and Xylazine (120 mg/kg and 16 mg/kg respectively, i.p.) mice received a dorsal laminectomy at the level of 9th thoracic vertebra (T9). After securing the lateral processes of the 8th thoracic vertebra (T8) and 10th thoracic vertebra (T10) with a stainless-steel impactor tip, a controlled force-defined impact at 75 kdyne was delivered to the exposed spinal cord^28,30. Then, muscle and skin were closed with 4.0 polyglycolic acid (PGA) absorbable sutures (Safil, G1048213). In this study, mice were excluded when the actual displacement value was outside the interval 500-700 μm or if the actual force after impact was >2SD 75 Kdyne. Immediately after injury, mice were injected subcutaneously with 0.5 ml of sterile saline and then daily for 5 days. […] Weight was monitored daily until 15 days-post-injury (dpi) and then weekly for the duration of the study and a high caloric pellet (Supreme Mini-Treats™ S05478 and S05472) was provided as a dietary supplement since a 10% weight loss was typically observed in this SCI model upon injury. […]
For immunohistochemistry in sections, OCT was removed from the cryosections using PBS (30 minutes). […] For activated microglia quantification, sections were counterstained with DAPI. […]
One set of sections was stained with anti-PDGFRβ and anti-GFAP to outline the border of the fibrotic scar area. Z-stack compositions were acquired in a motorized inverted widefield fluorescence microscope (Zeiss Cell Observer, Carl Zeiss MicroImaging) with 20× magnification. Fiji software was used to manually outline and calculate the PDGFRβ^+ area and total cross-sectional area to thereafter quantify the percentage of fibrotic scar area per total cross-sectional area. The rostral and caudal extents of fibrotic lesion were determined by inspection. […]

[3] = test system: mice with T9 contusion type of injury; experiment: FluoroMyelin Green staining and white matter sparing analysis; conditions: 42 dpi; at lesion epicentre and over 700 μm rostrally and caudally, vs Vehicle
Method: as §1, with “G1048213).” for “G1048213). In this study, mice were excluded when the actual displacement value was outside the interval 500-700 μm or if the actual force after impact was >2SD 75 Kdyne. Immediately after injury, mice were injected subcutaneously with 0.5 ml of sterile saline and then daily for 5 days.”
To quantify demyelination, one set of sections spaced 100 μm apart and spanning the entire block was stained with FluoroMyelin™ Green (ThermoFisher Scientific, F34651) for 1 hour. Z-stack compositions were acquired in a motorized inverted widefield fluorescence microscope (Zeiss Cell Observer, Carl Zeiss MicroImaging) with 10× magnification. […]

[4] = 25 μM from 1 dpi, assessed at 2 dpi, dark periods, vs vehicle

## CN1CCC[C@@H]1Cc1c[nH]c2ccc(CCS(=O)(=O)c3ccccc3)cc12 [Eletriptan Hbr, Eletriptan Hydrobromide]
[1]; [4]
  total distance moved: rescues motor impairments
  turn angle: rescues motor impairments
[1]; 25 μM in medium from 1 dpi for 24 hours, behavioural assessment at 2 dpi, vs vehicle treated injured larvae
  locomotor impairments: rescue locomotor impairments
[2]
  extension of PDGFRβ+ lesion core: no statistically significant differences
  extension of increased levels of PDGFRβ+ immunostaining: statistically significant reduction
[2]; at lesion epicentre
  area of fibrotic lesion core: no statistically significant differences
[3]
  spared white matter per total cross-sectional area: not significantly but consistently higher
